# pIC50: −log10 of the molar value. Counter-ions that a name gives are not always drawn.
# Biological target: recombinant human SAE enzyme (Homo sapiens (Human), UniProt Q9UBT2)
# Experiment: SAE HTRF enzyme assay
# Assay type: biochemical
# Settings: for IC50: SAE inhibition, class symbols, legend in nM; for inhibition at 0.111 µM: read-out: Percent Inhibition; for pIC50: class symbols A/B/C
# In short: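 Human SAE (0.11 nM) with 0.5 μM ATP, 0.125 μM Sumo-Flag and 0.01 μM Ubc9-GST in HEPES pH 7.5, 5 mM MgCl2, 250 μM GSH; 105 min at 24 °C. Stopped with EDTA; HTRF read after 2 h with Eu-anti-Flag and APC-anti-GST. Percent inhibition or IC50 reported.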
# [1] = SAE inhibition at compound concentration 0.111 μM
# recombinant human SAE enzyme, sequence (Q9UBT2 whole entry): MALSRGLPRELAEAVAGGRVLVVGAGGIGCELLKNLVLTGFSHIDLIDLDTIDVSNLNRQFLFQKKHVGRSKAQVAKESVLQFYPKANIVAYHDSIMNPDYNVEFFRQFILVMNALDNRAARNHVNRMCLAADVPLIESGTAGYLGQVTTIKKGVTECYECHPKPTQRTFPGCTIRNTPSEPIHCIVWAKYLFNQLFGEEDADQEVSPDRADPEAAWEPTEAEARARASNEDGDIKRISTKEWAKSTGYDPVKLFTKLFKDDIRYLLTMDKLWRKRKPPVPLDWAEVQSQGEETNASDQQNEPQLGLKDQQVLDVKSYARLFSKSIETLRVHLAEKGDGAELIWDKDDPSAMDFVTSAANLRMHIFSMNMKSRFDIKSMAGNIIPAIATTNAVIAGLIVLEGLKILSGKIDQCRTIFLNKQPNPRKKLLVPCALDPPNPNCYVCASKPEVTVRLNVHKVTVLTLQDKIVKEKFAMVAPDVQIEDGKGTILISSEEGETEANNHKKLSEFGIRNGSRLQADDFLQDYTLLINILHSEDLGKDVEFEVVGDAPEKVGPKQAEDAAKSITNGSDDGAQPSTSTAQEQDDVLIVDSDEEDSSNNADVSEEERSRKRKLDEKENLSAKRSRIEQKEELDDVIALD
# recombinant human SAE enzyme, sequence (Q9UBE0 whole entry partner): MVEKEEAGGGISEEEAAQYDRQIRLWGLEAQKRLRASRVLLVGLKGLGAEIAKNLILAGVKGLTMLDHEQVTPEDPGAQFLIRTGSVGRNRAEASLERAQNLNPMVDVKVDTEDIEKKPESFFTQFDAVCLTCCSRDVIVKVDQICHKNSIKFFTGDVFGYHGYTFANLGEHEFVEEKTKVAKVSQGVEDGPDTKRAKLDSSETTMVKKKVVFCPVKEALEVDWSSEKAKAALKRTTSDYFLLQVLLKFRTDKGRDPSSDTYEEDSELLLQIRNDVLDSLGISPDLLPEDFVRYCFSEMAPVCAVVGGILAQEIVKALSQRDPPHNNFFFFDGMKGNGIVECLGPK
Molecule,Percent Inhibition [1] [%],IC50 [nM],inhibition at 0.111 µM [1] [%],Percent Inhibition (Concentration 0.111 μM),pIC50
"NS(=O)(=O)OC[C@H]1C[C@@H](Nc2ncncc2C(=O)c2cc([C@@H]3OCCc4cc(Cl)ccc43)cs2)C[C@@H]1O [I-357, [(1R,2S,4R)-4-[[5-[4-[(1R)-6-chloroisochroman-1-yl]thiophene-2-carbonyl]pyrimidin-4-yl]amino]-2-hydroxy-cyclopentyl]methyl sulfamate and [(1R,2S,4R)-4-[[5-[4-[(1S)-6-chloroisochroman-1-ylthiophene-2-carbonyl]pyrimidin-4-yl]amino}-2-hydroxy-cyclopentyl]methyl sulfamate]",97,< 10,–,–,–
"Cc1sc(C(=O)c2cncnc2N[C@@H]2C[C@H](COS(N)(=O)=O)[C@@H](O)C2)cc1-c1nccc2ccc(Cl)cc12 [I-358, [(1R,2S,4R)-4-[[5-[4-(7-chloro-1-isoquinolyl)-5-methyl-thiophene-2-carbonyl]pyrimidin-4-yl]amino]-2-hydroxy-cyclopentyl]methyl sulfamate]",–,< 10,96,–,–
"Cc1sc(C(=O)c2cncnc2N[C@@H]2C[C@H](COS(N)(=O)=O)[C@@H](O)C2)cc1C1=NCCc2ccc(Cl)cc21 [I-360, ((1R,2S,4R)-4-{(5-(4-(7-chloro-3,4-dihydroisoquinolin-1-yl)-5-methylthiophene-2-carbonyl)pyrimidin-4-yl)amino)-2-hydroxycyclopentyl)methyl sulfamate]",–,< 10,95,–,–
"NS(=O)(=O)OC[C@H]1C[C@@H](Nc2ncncc2C(=O)c2cc([C@@H]3OCCc4ccc(Cl)cc43)c(C(F)F)s2)C[C@@H]1O [I-361, (1R,2S,4R)-4-[[5-[4-[(R)-7-chloroisochroman-1-yl]-5-(difluoromethyl)thiophene-2-carbonyl]pyrimidin-4-yl]amino]-2-hydroxy-cyclopentyl]methyl sulfamate and (1R,2S,4R)-4-[[5-[4-[(1S)-7-chloroisochroman-1-yl]-5-(difluoromethyl)thiophene-2-carbonyl]pyrimidin-4-yl]amino}-2-hydroxy-cyclopentyl]methyl sulfamate]",95,< 10,–,–,–
"Cc1sc(C(=O)c2cncnc2N[C@@H]2C[C@H](COS(N)(=O)=O)[C@@H](OC(=O)[C@H](C)N)C2)cc1[C@@H]1OCCc2ccc(Cl)cc21 [I-362, [(1S,2R,4R)-4-[5-[4-[(1R)-7-chloroisochroman-1-yl]-5-methyl-thiophene-2-carbonyl]pyrimidin-4-yl]amino]-2-(sulfamoyloxymethyl)cyclopentyl] (2S)-2-aminopropanoate; hydrochloride]",91,10 to 100,–,–,–
"CC[C@H](C)[C@H](N)C(=O)O[C@H]1C[C@H](Nc2ncncc2C(=O)c2cc([C@@H]3OCCc4ccc(Cl)cc43)c(C)s2)C[C@@H]1COS(N)(=O)=O.Cl [I-363, [(1S,2R,4R)-4-[[5-[4-[(1R)-7-chloroisochroman-1-yl]-5-methyl-thiophene-2-carbonyl]pyrimidin-4-yl]amino]-2-(sulfamoyloxymethyl)cyclopentyl (2S,3S)-2-amino-3-methyl-pentanoate hydrochloride]",–,100 to 1000,–,–,–
CC[C@H](C)[C@H](N)C(=O)O[C@H]1C[C@H](Nc2ncncc2C(=O)c2cc([C@@H]3OCCc4ccc(Cl)cc43)c(C)s2)C[C@@H]1COS(N)(=O)=O.Cl [I-363],57,–,–,–,–
"Cc1sc(C(=O)c2cncnc2N[C@@H]2C[C@H](COS(N)(=O)=O)[C@@H](OC(=O)Cc3ccc(OP(=O)(O)O)cc3)C2)cc1[C@@H]1OCCc2ccc(Cl)cc21 [I-364, [(1S,2R,4R)-4-[[5-[4-[(1R)-7-chloroisochroman-1-yl]-5-methyl-thiophene-2-carbonyl]pyrimidin-4-yl]amino]-2-(sulfamoyloxymethyl)cyclopentyl] 2-(4-phosphonooxyphenyl)acetate]",–,–,13,–,–
"NS(=O)(=O)OC[C@H]1C[C@@H](Nc2ncncc2C(=O)c2cc([C@H]3OCCc4cccc(Cl)c43)cs2)C[C@@H]1O [I-365, [(1R,2S,4R)-4-[[5-[4-[(1S)-chloroisochroman-1-yl]thiophene-2-carbonyl]pyrimidin-4-yl]amino]-2-hydroxy-cyclopentyl]methyl sulfamate and [(1R,2S,4R)-4-[[5-[4-[(1R)-8-chloroisochroman-1-yl]thiophene-2-carbonyl]pyrimidin-4-yl]amino]-2-hydroxy-cyclopentyl]methyl sulfamate]",62,10 to 100,–,–,–
"[(1R,2S,4R)-2-hydroxy-4-({5-[(5-methyl-4-{(R)-[3-(trifluoromethyl)phenyl]sulfinyl}-2-thienyl)carbonyl]pyrimidin-4-yl}amino)cyclopentyl]methyl sulfamate and [(1R,2S,4R)-2-hydroxy-4-({5-[(5-methyl-4-{(S)-[3-(trifluoromethyl)phenyl]sulfinyl}-2-thienyl)carbonyl]pyrimidin-4-yl}amino)cyclopentyl]methyl sulfamate [I-69]",–,–,–,100,> 8.00
"[(1R,2S,4R)-2-hydroxy-4-{[5-({4-[(1R)-2-methyl-2,3-dihydro-1H-isoindol-1-yl]-2-thienyl}carbonyl)pyrimidin-4-yl]amino}cyclopentyl]methyl sulfamate and [(1R,2S,4R)-2-hydroxy-4-{[5-({4-[(1S)-2-methyl-2,3-dihydro-1H-isoindol-1-yl]-2-thienyl}carbonyl)pyrimidin-4-yl]amino}cyclopentyl]methyl sulfamate [I-308]",98,< 10,–,–,–
"[(1R,2S,4R)-4-{[5-({4-[(1R)-7-bromo-1,2,3,4-tetrahydroisoquinolin-1-yl]-5-chloro-2-thienyl}carbonyl)pyrimidin-4-yl]amino}-2-hydroxycyclopentyl]methyl sulfamate and [(1R,2S,4R)-4-{[5-({4-[(1S)-7-bromo-1,2,3,4-tetrahydroisoquinolin-1-yl]-5-chloro-2-thienyl}carbonyl)pyrimidin-4-yl]amino}-2-hydroxycyclopentyl]methyl sulfamate [I-251]",–,–,–,100,> 8.00
"[(1R,2S,4R)-4-{[5-({5-chloro-4-[(1R)-1-hydroxy-2-phenylethyl]-2-thienyl}carbonyl)pyrimidin-4-yl]amino}-2-hydroxycyclopentyl]methyl sulfamate and [(1R,2S,4R)-4-{[5-({5-chloro-4-[(1S)-1-hydroxy-2-phenylethyl]-2-thienyl}carbonyl)pyrimidin-4-yl]amino}-2-hydroxycyclopentyl]methyl sulfamate [I-136]",–,–,–,96,> 8.00
"[(1R,2S,4R)-4-{[5-({5-chloro-4-[(1S)-1,2,3,4-tetrahydroisoquinolin-1-yl]-2-thienyl}carbonyl)pyrimidin-4-yl]amino}-2-hydroxycyclopentyl]methyl sulfamate and [(1R,2S,4R)-4-{[5-({5-chloro-4-[(1R)-1,2,3,4-tetrahydroisoquinolin-1-yl]-2-thienyl}carbonyl)pyrimidin-4-yl]amino}-2-hydroxycyclopentyl]methyl sulfamate [I-279]",–,–,–,99,> 8.00
"{(1R,2S,4R)-4-[(5-{5-chloro-4-[(1R)-7-chloro-1,2,3,4-tetrahydroisoquinolin-1-yl]-2- [I-299]",98,< 10,–,–,–
